Laboratory results as given in patent publication US7713914B2 (priority 2005, dated 2010).

What was measured:
[1] = tested on: Bacillus cereus spores; type: cell-based
[2] = Solubility of DPA in water; type: physicochemical
[3] = tested on: Bacillus anthracis endospores

Structure (SMILES): CCCCCCCCCCCCN [DDA, dodecylamine, reference compound]
- Exposure required before a reasonable DPA SERS signal was observed [1]: 1 h

Structure (SMILES): O=C(O)c1cccc(C(=O)O)n1 [DPA, dipicolinic acid]
- Solubility in water [2]: only slightly soluble

Structure (SMILES): O=CO [formic acid]
- SERS of DPA (CaDPA release at room temperature) [1]: observed

Structure (SMILES): CC(=O)O [glacial acetic acid, acetic acid]
- DPA concentration calculated from 1008 cm-1 peak ([3]; Example 1, hypothetical 1000 spores, 50 microL, 1 minute): 20±10 ng per 1 mL
- Time in which most, if not all, of the CaDPA is released ([3]; acid dispensed onto surface): 1 to 5 min

Structure (SMILES): CC(O)C(=O)O (stereo not shown) [lactic acid]
- SERS of DPA (CaDPA release at room temperature) [1]: observed

Structure (SMILES): O=C(O)C(F)(F)F [trifluoroacetic acid]
- SERS of DPA (CaDPA release at room temperature) [1]: observed
